Source: patent US6737383B1, “Herbicidal oxadiazolidines” (priority 1999, dated 2004)

Assays:
bedstraw = test: Test B pre/postemergence bedstraw; format: in vivo, Galium aparine
In short: (§1)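 Response is a visual 0-to-10 score relative to untreated plants, where 0 means no effect and 10 means complete control, taken twelve to sixteen days after application. Treatments went onto soil at planting and onto foliage of 1- to 4-leaf plants, using a surfactant-containing non-phytotoxic solvent.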

blackgrass = test: Test B pre/postemergence blackgrass; format: in vivo, Alopecurus myosuroides
In short: as §1

surinam grass = test: Test B pre/postemergence surinam grass; format: in vivo, Brachiaria decumbens
In short: as §1

cocklebur = test: Test B pre/postemergence cocklebur; format: in vivo, Xanthium strumarium
In short: as §1

corn = test: Test B pre/postemergence corn; format: in vivo, Zea mays
In short: as §1

crabgrass = test: Test B pre/postemergence crabgrass; format: in vivo, Digitaria sanguinalis
In short: as §1

morningglory = test: Test B pre/postemergence morningglory; format: in vivo, Ipomoea hederacea
In short: as §1

pigweed = test: Test B pre/postemergence pigweed; format: in vivo, Amaranthus retroflexus
In short: as §1

rape = test: Test B pre/postemergence rape; format: in vivo, Brassica napus
In short: as §1

sugar beet = test: Test B pre/postemergence sugar beet; format: in vivo, Beta vulgaris
In short: as §1

velvetleaf = test: Test B pre/postemergence velvetleaf; format: in vivo, Abutilon theophrasti
In short: as §1

wheat = test: Test B pre/postemergence wheat; format: in vivo, Triticum aestivum
In short: as §1

wild oat = test: Test B pre/postemergence wild oat; format: in vivo, Avena fatua
In short: as §1

purple nutsedge = test: Test B pre/postemergence purple nutsedge; format: in vivo, Cyperus rotundus
In short: as §1

smallflower flatsedge = test: Test B flood test smallflower flatsedge; format: in vivo, Cyperus difformis
In short: (§2)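 Read-out is a visual response score from 0 (no effect) to 10 (complete control), assigned by comparison with untreated controls. Treatment was applied at the 2-leaf stage, and plants stayed in the greenhouse for twelve to sixteen days before scoring.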

duck salad = test: Test B flood test duck salad; format: in vivo, Heteranthera limosa
In short: as §2

[1] = Postemergence, Rate 125 g/ha, scale 0 to 10, 0 is no effect, 10 is complete control
[2] = Postemergence, Rate 500 g/ha, scale of 0 to 10 where 0 is no effect and 10 is complete control
[3] = Preemergence, Rate 62 g/ha, scale 0 to 10 (0 no effect, 10 complete control)
[4] = Preemergence, Rate 125 g/ha, scale of 0 to 10 where 0 is no effect and 10 is complete control
[5] = Rate 62 g/ha, Postemergence, scale of 0 to 10 where 0 is no effect and 10 is complete control
[6] = Postemergence, Rate 250 g/ha, scale 0 to 10, 0 is no effect, 10 is complete control
[7] = Preemergence, Rate 250 g/ha, scale of 0 to 10 where 0 is no effect and 10 is complete control
[8] = Preemergence, Rate 500 g/ha, scale 0 to 10, 0 is no effect, 10 is complete control
[9] = Preemergence, Rate 250 g/ha, scale 0 to 10, 0 is no effect, 10 is complete control
[10] = Rate 62 g/ha, flood test species, Pre-emergence, visual evaluation after twelve to sixteen days
[11] = Rate 125 g/ha, under heading Pre-emergence, flood test species, visual evaluation after twelve to sixteen days
[12] = Rate 250 g/ha, Pre-emergence, flood-test species, scale 0 to 10, 0 is no effect, 10 is complete control
[13] = Rate 500 g/ha, Pre-emergence, flood test species, scale 0 to 10 (0 no effect, 10 complete control)

CC(C)N(C(=O)n1oc(=O)n(CC2CCC2)c1=O)c1ccc(F)cc1 [Compound 403]
8: Bedstraw plant response rating (bedstraw; [2]) | Plant response rating, Crabgrass (crabgrass; [6]) | Plant response rating, Morningglory (morningglory; [6]) | Wild oats plant response rating (wild oat; [8])
7: Plant response rating, Blackgrass (blackgrass; [4]) | Blackgrass plant response rating (blackgrass; [7]) | B. signalgrass plant response rating (surinam grass; Preemergence, Rate 500 g/ha, scale of 0 to 10 where 0 is no effect and 10 is complete control) | Rape plant response rating (rape; [2]) | Rape plant response rating (rape; [8])
1: Plant response rating, Redroot pigweed (pigweed; [6]) | Plant response rating, Rape (rape; [4]) | Plant response rating, Sugarbeets (sugar beet; [4])
6: Blackgrass plant response rating (blackgrass; [5]) | B. signalgrass plant response rating (surinam grass; [2]) | Corn plant response rating (corn; [8]) | Velvetleaf plant response rating (velvetleaf; [2]) | S. Flatsedge plant response rating (smallflower flatsedge; [13])
5: B. signalgrass plant response rating (surinam grass; [7]) | Rape plant response rating (rape; [9]) | Sugarbeets plant response rating (sugar beet; [8]) | Velvetleaf plant response rating (velvetleaf; [8]) | Wild oats plant response rating (wild oat; [2]) | Wild oats plant response rating (wild oat; [9])
9: Plant response rating, Blackgrass (blackgrass; [1]) | Blackgrass plant response rating (blackgrass; [8]) | Crabgrass plant response rating (crabgrass; [2]) | Redroot pigweed plant response rating (pigweed; [9]) | Redroot pigweed plant response rating (pigweed; [8])
3: Plant response rating, B. signalgrass (surinam grass; [6]) | Plant response rating, B. signalgrass (surinam grass; [3]) | Plant response rating, Crabgrass (crabgrass; [1]) | Sugarbeets plant response rating (sugar beet; [2]) | Sugarbeets plant response rating (sugar beet; [9]) | Velvetleaf plant response rating (velvetleaf; [9])
0: Plant response rating, Bedstraw (bedstraw; [3]) | Plant response rating, Bedstraw (bedstraw; [4]) | Bedstraw plant response rating (bedstraw; [5]) | B. signalgrass plant response rating (surinam grass; [5]) | Plant response rating, Cocklebur (cocklebur; [1]) | Plant response rating, Cocklebur (cocklebur; [6]) | Cocklebur plant response rating (cocklebur; [2]) | Plant response rating, Cocklebur (cocklebur; [3]) | Plant response rating, Cocklebur (cocklebur; [4]) | Cocklebur plant response rating (cocklebur; [9]) | Cocklebur plant response rating (cocklebur; [5]) | Plant response rating, Corn (corn; [1]) | Plant response rating, Corn (corn; [6]) | Corn plant response rating (corn; [2]) | Plant response rating, Corn (corn; [3]) | Corn plant response rating (corn; [5]) | Plant response rating, Morningglory (morningglory; [3]) | Plant response rating, Morningglory (morningglory; [4]) | Morningglory plant response rating (morningglory; [9]) | Morningglory plant response rating (morningglory; [8]) | Plant response rating, Redroot pigweed (pigweed; [3]) | Redroot pigweed plant response rating (pigweed; [5]) | Plant response rating, Rape (rape; [3]) | Plant response rating, Sugarbeets (sugar beet; [6]) | Plant response rating, Sugarbeets (sugar beet; [3]) | Sugarbeets plant response rating (sugar beet; [5]) | Plant response rating, Velvetleaf (velvetleaf; [6]) | Plant response rating, Velvetleaf (velvetleaf; [3]) | Plant response rating, Velvetleaf (velvetleaf; [4]) | Velvetleaf plant response rating (velvetleaf; [5]) | Plant response rating, Wheat (wheat; [3]) | Plant response rating, Wheat (wheat; [4]) | Wheat plant response rating (wheat; [9]) | Wheat plant response rating (wheat; [8]) | Wheat plant response rating (wheat; [5]) | Plant response rating, Wild oats (wild oat; [3]) | Wild oats plant response rating (wild oat; [5]) | Plant response rating, Nutsedge (purple nutsedge; [6]) | Nutsedge plant response rating (purple nutsedge; [2]) | Plant response rating, Nutsedge (purple nutsedge; [3]) | Plant response rating, Nutsedge (purple nutsedge; [4]) | Nutsedge plant response rating (purple nutsedge; [9]) | Nutsedge plant response rating (purple nutsedge; [8]) | Nutsedge plant response rating (purple nutsedge; [5]) | Plant response rating, S. Flatsedge (0 to 10 scale, 0 is no effect, 10 is complete control) (smallflower flatsedge; [10]) | S. Flatsedge plant response rating (0 to 10 scale, 0 is no effect, 10 is complete control) (smallflower flatsedge; [11]) | S. Flatsedge plant response rating (smallflower flatsedge; [12]) | Plant response rating, Ducksalad (0 to 10 scale, 0 is no effect, 10 is complete control) (duck salad; [10]) | Ducksalad plant response rating (0 to 10 scale, 0 is no effect, 10 is complete control) (duck salad; [11]) | Ducksalad plant response rating (duck salad; [12]) | Ducksalad plant response rating (duck salad; [13])
4: Plant response rating, B. signalgrass (surinam grass; [4]) | Plant response rating, Redroot pigweed (pigweed; [4]) | Plant response rating, Rape (rape; [6]) | Wheat plant response rating (wheat; [2]) | Plant response rating, Wild oats (wild oat; [4])
10: Plant response rating, Blackgrass (blackgrass; [6]) | Blackgrass plant response rating (blackgrass; [2]) | Plant response rating, Crabgrass (crabgrass; [3]) | Plant response rating, Crabgrass (crabgrass; [4]) | Crabgrass plant response rating (crabgrass; [9]) | Crabgrass plant response rating (crabgrass; [8]) | Morningglory plant response rating (morningglory; [2])
2: Plant response rating, Bedstraw (bedstraw; [1]) | Plant response rating, Blackgrass (blackgrass; [3]) | Plant response rating, B. signalgrass (surinam grass; [1]) | Plant response rating, Corn (corn; [4]) | Corn plant response rating (corn; [9]) | Crabgrass plant response rating (crabgrass; [5]) | Morningglory plant response rating (morningglory; [5]) | Redroot pigweed plant response rating (pigweed; [2]) | Rape plant response rating (rape; [5])
